Assay results as given in US11827628B2, “Compositions and methods for inhibition of the JAK pathway” (Rigel Pharmaceuticals, Inc., priority 2005, dated 2023).
Where a name gives a salt, the structure may show the parent alone.

Test system: up-regulation of ICAM-1 (CD54) by IFNγ in A549 lung epithelial cells
Test: A549 Epithelial Line Stimulated with IFNγ (ICAM-1 surface expression, FACS)
Format: cell-based, human
Settings: Homo sapiens, A549, A549 cells stimulated with IFNγ, ICAM-1 expression by FACS; read-out: IC50, Example 43
Description: The activity of the compounds of the invention may additionally be characterized by assaying the effect of the 2,4-substituted pyrimidinediamine compounds described herein on A549 lung epithelial cells and U937 cells. A549 lung epithelial cells and U937 cells up-regulate ICAM-1 (CD54) surface expression in response to a variety of different stimuli. Therefore, using ICAM-1 expression as readout, test compound effects on different signaling pathways can be assessed in the same cell type. Stimulation with IL-1β through the IL-1β receptor activates the TRAF6/NFκB pathway resulting in up-regulation of ICAM-1. IFNγ induces ICAM-1 up-regulation through activation of the JAK1/JAK2 pathway. The up-regulation of ICAM-1 can be quantified by flow cytometry across a compound dose curve and EC50, values are calculated. An exemplary assays of this type are described in greater detail in Examples 43 and 44
A549 lung epithelial cells up-regulate ICAM-1 (CD54) surface expression in response to a variety of different stimuli. Therefore, using ICAM-1 expression as readout, compound effects on different signaling pathways can be assessed in the same cell type. IFNγ up-regulates ICAM-1 through activation of the JAK/Stat pathway. In this example, the up-regulation of ICAM-1 by IFNγ was assessed.
The A549 lung epithelial carcinoma cell line originated from the American Type Culture Collection. Routine culturing was with F12K media (Mediatech Inc., Lenexa, KS, Cat. No. 10-025-CV) with 10% fetal bovine serum, 100 I.U. penicillin and […] streptomycin (complete F12k media). Cells were incubated in a humidified atmosphere of 5% CO2 at 37° C. Prior to use in the assay, A549 cells were washed with PBS and trypsinized (Mediatech Inc., Cat. No. 25-052-CI) to lift the cells. The trypsin cell suspension was neutralized with complete F12K media and centrifuged to pellet the cells. The cell pellet was resuspended in complete F12K media at a concentration of 2.0×10^5/mL. Cells were seeded at 20,000 per well, 100 μL total volume, in a flat bottom tissue culture plate and allowed to adhere overnight.
On day two, A549 cells were pre-incubated with a 2,4-substituted pyrimidinediamine test compound or DMSO (control) (Sigma-Aldrich, St. Louis, MO, Catalog No. D2650) for 1 hour. The cells were then stimulated with IFNγ (75 ng/mL) (Peprotech Inc., Rocky Hill, NJ, Cat. No. 300-02) and allowed to incubate for 24 hours. The final test compound dose range was 30 μM to 14 nM in 200 μL F12K media containing 5% FBS, 0.3% DMSO.
On day three, the cell media was removed and the cells were washed with 200 μL PBS (phosphate buffered saline). Each well was trypsinized to dissociate the cells, then neutralized by addition of 200 μL complete F12K media. Cells were pelleted and stained with an APC conjugated mouse anti-human ICAM-1 (CD54) (BD Pharmingen, San Diego, CA, Catalog #559771) antibody for 20 minutes at 4° C. Cells were washed with ice cold FACS buffer (PBS+2% FBS) and surface ICAM-1 expression was analyzed by flow cytometry. Detection was performed using a BD LSR I System Flow Cytometer, purchased from BD Biosciences of San Jose, California Events were gated for live scatter and the geometric mean was calculated (Becton-Dickinson CellQuest software version 3.3, Franklin Lakes, NJ). Geometric means were plotted against the compound concentration to generate a dose response curve.

Q: Which IC50 does the source give for `N#CCN1C(=O)COc2ccc(Nc3nc(Nc4cccc(S(N)(=O)=O)c4)ncc3F)cc21` [Compound V-7, N2-(3-Aminosulphonylphenyl)-5-fluoro-N4-(3-oxo-4-cyanomethyl-benz[1,4]oxazin-6-yl]-2,4-pyrimidinediamine] here?
A: The IC50 was 5 µM.

Q: How did the IC50 turn out when `Cc1ccc(Nc2ncc(F)c(Nc3ccc4c(c3)N(CC#N)C(=O)CO4)n2)cc1S(N)(=O)=O` [Compound V-8, N2-(3-Aminosulphonyl-4-methylphenyl)-5-fluoro-N4-[3-oxo-4-cyanomethyl-benz[1,4]oxazin-6-yl]-2,4-pyrimidinediamine] was run?
A: Its IC50 is 5.21 µM.

Q: `N#CCN1C(=O)CSc2ccc(Nc3nc(Nc4cccc(S(N)(=O)=O)c4)ncc3F)cc21` [Compound V-12, N2-(3-Aminosulphonylphenyl)-5-fluoro-N4-(3-oxo-4-cyanomethyl-benzo[1,4]thiazin-6-yl)-2,4-pyrimidinediamine] was tested. Which IC50 did it give?
A: The IC50 was 54 µM.

Q: With `Cc1ccc(Nc2ncc(F)c(Nc3ccc4c(c3)N(CC#N)C(=O)CS4)n2)cc1S(N)(=O)=O` [Compound V-13, N2-(3-Aminosulphonyl4-methylphenyl)-5-fluoro-N4-(3-oxo-4-cyanomethyl-benzo[1,4]thiazin-6-yl)-2,4-pyrimidinediamine] as the compound, how does the IC50 read?
A: The IC50 was 6.87 µM.

Q: Which IC50 does the source give for `NS(=O)(=O)c1cccc(Nc2ncc(F)c(Nc3ccc(Cc4ccncc4)cc3)n2)c1` [III-128, N2-(3-Aminosulfonylphenyl)-5-fluoro-N4-[4-(4-pyridylmethyl)phenyl]-2,4-pyrimidinediamine p-Toluenesulfonic Acid Salt] here?
A: Its IC50 is 28.1 µM.

Q: Which IC50 does the source give for `NS(=O)(=O)c1cccc(Nc2ncc(F)c(Nc3ccc(-c4cnco4)cc3)n2)c1` [IV-5, N2-(3-Aminosulfonylphenyl)-5-fluoro-N4-[4-(1,3-oxazol-5-yl)phenyl]-2,4-pyrimidinediamine] here?
A: Its IC50 is 16.1 µM.

Q: With `C#CCn1ccc2cc(Nc3nc(Nc4ccc(C)c(S(N)(=O)=O)c4)ncc3F)ccc21` [IX-1, N2-(3-Aminosulfonyl-4-methylphenyl)-5-fluoro-N4-[1-(propyn-3-yl)indol-5-yl]-2,4-pyrimidinediamine] as the compound, how does the IC50 read?
A: Its IC50 is 4.88 µM.

Q: How did the IC50 turn out when `N#CCc1c[nH]c2ccc(Nc3nc(Nc4cccc(S(N)(=O)=O)c4)ncc3F)cc12` [IX-13, N2-(3-Aminosulfonylphenyl)-N4-(3-cyanomethyl-1H-indol-5-yl)-5-fluoro-2,4-pyrimidinediamine] was run?
A: Its IC50 is 30.3 µM.

Q: `Cc1ccc(Nc2ncc(F)c(Nc3ccc4[nH]cc(CC#N)c4c3)n2)cc1S(N)(=O)=O` [IX-14, N2-(3-Aminosulfonyl-4-methylphenyl)-N4-(3-cyanomethyl-1H-indol-5-yl)-5-fluoro-2,4-pyrimidinediamine] was tested. Which IC50 did it give?
A: The IC50 was 3.38 µM.

Q: Which IC50 does the source give for `Cc1ccc(Nc2ncc(F)c(Nc3ccc(Cl)c(Cl)c3)n2)cc1S(N)(=O)=O` [VI-6, N2-(3-Aminosulfonyl-4-methylphenyl)-N4-(3,4-dichlorophenyl)-5-fluoro-2,4-pyrimidinediamine] here?
A: The IC50 was 15 µM.

Q: `COc1cc(Nc2nc(Nc3ccc(Cl)c(S(N)(=O)=O)c3)ncc2F)ccc1Cl` [VI-11, N2-(3-Aminosulfonyl-4-chlorophenyl)-N4-(4-chloro-3-methoxyphenyl)-5-fluoro-2,4-pyrimidinediamine] was tested. Which IC50 did it give?
A: Its IC50 is 47.1 µM.

Q: With `COc1ccc(Nc2nc(Nc3cc(Cl)c(C)c(S(N)(=O)=O)c3)ncc2F)cc1Cl` [VI-13, N2-(3-Aminosulfonyl-5-chloro-4-methylphenyl)-N4-(3-chloro-4-methoxyphenyl)-5-fluoro-2,4-pyrimidinediamine] as the compound, how does the IC50 read?
A: Its IC50 is 8.23 µM.

Q: With `COc1ccc(Nc2nc(Nc3cc(C)c(Cl)c(S(N)(=O)=O)c3)ncc2F)cc1Cl` [VI-17, N2-(3-Aminosulfonyl-4-chloro-5-methylphenyl)-N4-(3-chloro-4-methoxyphenyl)-5-fluoro-2,4-pyrimidinediamine] as the compound, how does the IC50 read?
A: The IC50 was 6.42 µM.

Q: For `COc1ccc(Nc2nc(Nc3cccc(S(N)(=O)=O)c3)ncc2Br)cc1Cl` [VI-26, N2-(3-aminosulfonylphenyl)-5-bromo-N4-(3-chloro-4-methoxyphenyl)-2,4-pyrimidinediamine], which IC50 is on record?
A: Its IC50 is 1.7 µM.

Q: How did the IC50 turn out when `COc1c(C)cc(Nc2ncc(F)c(Nc3ccc(C(C)(C)C)cc3)n2)cc1S(N)(=O)=O` [VI-37, N2-(3-Aminosulfonyl-4-methoxy-5-methylphenyl)-N4-(4-tert-butylphenyl)-5-fluoro-2,4-pyrimidinediamine] was run?
A: The IC50 was 12.4 µM.

Q: How did the IC50 turn out when `COc1ccc(Nc2nc(Nc3ccc(C(C)C)c(S(N)(=O)=O)c3)ncc2F)cc1Cl` [VI-45, N2-(3-Aminosulfonyl-4-iso-propylphenyl)-N4-(3-chloro-4-methoxy-phenyl)-5-fluoro-2,4-pyrimidinediamine] was run?
A: The IC50 was 10.5 µM.

Q: How did the IC50 turn out when `Cc1ccc(Nc2ncc(F)c(Nc3ccc(CO)cc3)n2)cc1S(N)(=O)=O` [VI-52, N2-(3-Aminosulfonyl-4-methylphenyl)-5-fluoro-N4-(4-hydroxymethylphenyl)-2,4-pyrimidinediamine] was run?
A: The IC50 was 5.92 µM.

Q: For `C#CCOc1ccc(Nc2nc(Nc3ccc(C)c(S(N)(=O)=O)c3)ncc2F)cc1` [VI-53, N2-(3-Aminosulfonyl-4-methylphenyl)-5-fluoro-N4-[4-(prop-2-ynyloxy)phenyl]-2,4-pyrimidinediamine], which IC50 is on record?
A: Its IC50 is 11.3 µM.

Q: `C=Cc1ccc(Nc2nc(Nc3ccc(C)c(S(N)(=O)=O)c3)ncc2F)cc1` [VI-54, N2-(3-Aminosulfonyl-4-methylphenyl)-5-fluoro-N4-(4-vinylphenyl)-2,4-pyrimidinediamine] was tested. Which IC50 did it give?
A: The IC50 was 31 µM.

Q: For `C#CCOc1ccc(Nc2nc(Nc3ccc(C)c(S(N)(=O)=O)c3)ncc2F)cc1Cl` [VI-59, N2-(3-Aminosulfonyl-4-methylphenyl)-N4-[3-chloro-4-(prop-2-ynyloxy)phenyl]-5-fluoro-2,4-pyrimidinediamine], which IC50 is on record?
A: Its IC50 is 4.98 µM.

Q: With `C#CCOc1ccc(Nc2nc(Nc3ccc(C)c(S(N)(=O)=O)c3)ncc2F)cc1F` [VI-60, N2-(3-Aminosulfonyl-4-methylphenyl)-5-fluoro-N4-[3-fluoro-4-(prop-2-ynyloxy)phenyl]-2,4-pyrimidinediamine] as the compound, how does the IC50 read?
A: Its IC50 is 3.85 µM.

Q: `CC#CCOc1ccc(Nc2nc(Nc3ccc(C)c(S(N)(=O)=O)c3)ncc2F)cc1` [VI-61, N2-(3-Aminosulfonyl-4-methylphenyl)-N4-[4-(but-2-ynyloxy)phenyl]-5-fluoro-2,4-pyrimidinediamine] was tested. Which IC50 did it give?
A: The IC50 was 3.11 µM.

Q: With `C#CCNc1ccc(Nc2nc(Nc3ccc(C)c(S(N)(=O)=O)c3)ncc2F)cc1` [VI-65, N2-(3-Aminosulfonyl-4-methylphenyl)-5-fluoro-N4-[4-(prop-2-ynylamino)phenyl]-2,4-pyrimidinediamine] as the compound, how does the IC50 read?
A: The IC50 was 4.13 µM.

Q: For `C#CCOc1ccc(Nc2nc(Nc3ccc(C)c(S(=O)(=O)NC)c3)ncc2F)cc1` [VI-68, 5-Fluoro-N2-(4-methyl-3-methylaminosulfonylphenyl)-N4-[4-(prop-2-ynyloxy)phenyl]-2,4-pyrimidinediamine], which IC50 is on record?
A: The IC50 was 26.8 µM.

Q: How did the IC50 turn out when `NS(=O)(=O)c1cccc(Nc2ncc(F)c(Nc3ccc(CCCF)cc3)n2)c1` [VI-83, N2-(3-Aminosulfonylphenyl)-5-fluoro-N4-[4-(3-fluoropropyl)phenyl]-2,4-pyrimidinediamine] was run?
A: The IC50 was 7.3 µM.

Q: How did the IC50 turn out when `Cc1ccc(Nc2ncc(F)c(Nc3ccc(CCCF)cc3)n2)cc1S(N)(=O)=O` [VI-84, N2-(3-Aminosulfonyl-4-methylphenyl)-5-fluoro-N4-[4-(3-fluoropropyl)phenyl]-2,4-pyrimidinediamine] was run?
A: Its IC50 is 4.58 µM.

Q: `NS(=O)(=O)c1ccc(Nc2ncc(F)c(Nc3ccc(CCCO)cc3)n2)cc1` [VI-85, N2-(4-Aminosulfonylphenyl)-5-fluoro-N4-[4-(3-hydroxypropyl)phenyl]-2,4-pyrimidinediamine] was tested. Which IC50 did it give?
A: The IC50 was 24.7 µM.

Q: `NS(=O)(=O)c1cccc(Nc2ncc(F)c(Nc3ccc(CCCO)cc3)n2)c1` [VI-86, N2-(3-Aminosulfonylphenyl)-5-fluoro-N4-[4-(3-hydroxypropyl)phenyl]-2,4-pyrimidinediamine] was tested. Which IC50 did it give?
A: Its IC50 is 4.44 µM.

Q: `NS(=O)(=O)c1ccc(Nc2ncc(F)c(Nc3ccc(CCCCO)cc3)n2)cc1` [VI-88, N2-(4-Aminosulfonylphenyl)-5-fluoro-N4-[4-(4-hydroxybutyl)phenyl]-2,4-pyrimidinediamine] was tested. Which IC50 did it give?
A: The IC50 was 24.7 µM.
